Patent US20250195661A1, “NIR-responsive stem cell-derived inflammation attenuating complex and use thereof” (priority 2023, published 2025)

Assay: Hydrodynamic size and potential analysis
Format: physicochemical
Experimental: The hydrodynamic size distribution and electrical potential of nanomedicines including AuS-TA were evaluated using a Litesizer 500 (Anton Paar) according to the manufacturer's instructions. AuS and TA non-covalently attached to AuS were quantified by determining absorbance using UV-vis spectrophotometry (Biochrom). […] Therefore, the TA amount of Edu-MSCs-AuS-TA was measured based on the AuS-TA ratio of AuS and TA. The concentration of each solution was extrapolated using the linear standard curve for AuS and TA. The morphology, crystallinity, and EDS mapping of AuS-PEG and AuS-TA complexes were analyzed using TEM (F30, Tecnai, USA) and STEM (JEM-ARM200F, JEOL, Japan).

hydrodynamic size: 77 nm
surface charge: close to neutral
SMILES: C[C@]12C=CC(=O)C=C1CC[C@H]1[C@@H]3C[C@@H](O)[C@](O)(C(=O)CO)[C@@]3(C)C[C@H](O)[C@@]12F [TA, triamcinolone]
